{"source": "patent US20210198629A1", "about": "“COMPOSITIONS AND METHODS FOR INCREASING BEIGING OF WHITE ADIPOSE TISSUE” (University of Georgia Research Foundation, Inc., priority 2018, published 2021)", "key": {"[1]": {"tested_on": "differentiated white adipocytes", "experiment": "RT-qPCR of markers after treating differentiated white adipocytes", "type": "cell-based, mouse", "settings": "differentiated white adipocytes treated for 48 hours", "method": "To differentiate into adipocytes, white adipose progenitor cells were cultured in growth media to reach 100% confluence for 1 day. The growth media was changed into basal induction medium (DMEM high glucose containing 10% FBS, 0.5 mM isobutylmethylxanthine, […] indomethacin, 2 μg/mL dexamethasone, 850 nM insulin, 1% penicillin/streptomycin). After 2-day induction, the media was changed to basal differentiation medium (DMEM high glucose containing 10% FBS, 850 nM insulin, 1% penicillin/streptomycin) and further incubated for 4-5 days. To differentiate beige adipocytes, fully confluent white adipose progenitor cells were incubated with the above induction medium supplemented with […] rosiglitazone and 1 nM T3 for 2 days and further differentiated in the basal differentiation medium supplemented with […] rosiglitazone and 1 nM T3 for 4-5 days.\nTotal RNA was isolated from tissue or cell culture using TRIzol. Total RNA (500 ng) from tissues or cell culture was used in 25 μL reverse transcription reactions (Maxima; Life technologies) and diluted into 250 μL. Diluted cDNA (2 μL) was used in quantitative PCR reactions (SsoAdvanced™ Universal SYBR Green mix; Bio-Rad) on a BioRad CFX384™ Real-Time PCR Detection System. Cq-values were determined and expression values were calculated by BioRad CFX Manager™ Software. Relative mRNA expression values were normalized to inner reference genes Rps18 and Tbp of each biological sample. For mitochondrial copy number qPCR, mitochondrial Cox2 gene was amplified and normalized to genomic β-globin gene.\nIn the above lentivirus-based primary/secondary screenings, sgRNA-mediated genome editing and consequent gene KO could occur either in proliferative adipose progenitor cells or fully-differentiated adipocytes. As such, Brd9 may function as a beige lineage repressor by either repressing the beige adipocyte lineage differentiation or the white-to-beige adipocyte conversion. To distinguish the above possibilities, white adipocytes were differentiated from white adipose progenitor cells under the basal differentiation condition and the differentiated white adipocytes were treated with BI-7273 for 48 hours. […] Therefore, BI-7273 likely induces the beige lineage determination and differentiation of white adipose progenitor cells by inhibiting BRD9."}, "[2]": {"tested_on": "DIO mice", "experiment": "Body weight, adiposity (BIS), food intake, treadmill exhaustion in DIO mice after oral BI-7273", "type": "in vivo, mouse", "method": "Treadmill exhaustion test was performed with an Exer 3/6 treadmill and controller (Columbus Instruments). The treadmill was set up with a uphill inclination of 10%.\nMice were anesthetized with 1% isoflurane and lied flat dorsal side up with limbs perpendicular and tail straight. Four electrodes of ImpediVET were fastened with 28G needles and placed on four points on the midline of the body. Fat-free mass (FFM) and fat mass (FM) were calculated from total body water (TBW) determined by input body weight and complex impedance plotting of 256 frequencies between 4 kHz and 1000 kHz.\nGiven the above augmentation of whole-body energy expenditure in BI-7273 treated DIO models, whether BI-7273 is sufficient to induce body weight loss and reduce adiposity (anti-obesity effects) was also investigated. DIO models were gavaged with BI-7273 or control 0.5% Natrosol for 14 days as described above and later fed with HFD for one additional month. […] On average, BI-7273 treated DIO mice lost ˜15.5% of body weight at the end of the study (1.5 months after the start of gavage; FIG. 5F). This weight loss rate is higher than the criterium established by the Endocrine Society for effective treatment of obesity (>5% weight loss over three months) (Apovian, C. M., et al., J Clin Endocrinol Metab, 100, 342-362 (2015)).\nUsing bioimpedance spectroscopy (BIS), the adiposity (fat mass percent) of mice before and after gavage was measured. […] On average, the reduced fat mass (55 grams×21%=11.6 grams) in BI-7273 treated mice was more than the body weight loss at the end of the study (˜9 grams), which indicates a concomitant increase of lean mass in BI-7273 treated DIO mice."}, "[3]": {"tested_on": "type 2 diabetic DIO mice", "experiment": "Blood glucose, HbA1c, HOMA-IR, IPGTT, IPITT in DIO mice after oral BI-7273", "type": "in vivo, mouse", "method": "Blood samples were taken from the tail vein and measured on HbA1c cartridges (5035C) loaded in a DCA Vantage Analyzer (Siemens).\n(§1) IPGTT was performed after 16 hrs fasting. Glucose (2 g kg^−1 body weight) was injected intraperitoneally. Blood samples were taken from the tail vein. Glucose levels were measured at 0, 15, 30, 60, and 120 min after glucose injection using a glucometer (OneTouch, Ultra 2).\nas §1, with “IPITT” for “IPGTT”, “6” for “16”, “Insulin (0.75 U” for “Glucose (2 g”, “weight, Roche Risch-Rotkreuz, Switzerland)” for “weight)”, “insulin” for “glucose”\nNext, whether BI-7273 oral administration is sufficient to protect DIO models from type 2 diabetes was investigated. Before gavage (3 months after HFD feeding), DIO models developed diabetes as evidenced by 1) averaged random non-fasting blood glucose level at ˜250 mg/dL; and 2) averaged glycated hemoglobin (HbA1c) level at 6.5% (FIG. 6A, B). […] Upon HFD feeding, C57BL/6 mice are predisposed to type 2 diabetes, which is characterized by insulin resistance (averaged HOMA-IR index=95; FIG. 6C)(32). BI-7273 oral administration lowered HOMA-IR index (to ˜55%; FIG. 6C), indicating much improved β-cell function and insulin resistance."}, "[4]": {"tested_on": "acute myeloid leukemia (AML) cells", "settings": "AML cells in vitro; cited from earlier work"}, "[5]": {"tested_on": "AML xenograft model", "settings": "cited from earlier work"}, "[6]": {"settings": "in vivo; cited from earlier work"}, "[7]": {"settings": "14-day oral administration, 1 month HFD refeeding"}}, "data": [{"compound": "COc1cc(-c2cn(C)c(=O)c3cnccc23)cc(OC)c1CN(C)C", "note": "[BI-7273, 4-[4-[(dimethylamino)methyl]-3,5-dimethoxyphenyl]-2-methyl-2,7-naphthyridin-1-one]", "values": [{"measurement": "Ucp1 mRNA increase", "setting": "[1]", "value": 1.6, "unit": "fold"}, {"measurement": "adipogenic markers (Pparg2, Leptin, Adiponectin, Fabp4)", "setting": "[1]", "value": "not affected"}, {"measurement": "mitochondrial markers (Ndufb2, Sdha, Uqcrc2, Cox8b, Atp5a1) increase", "setting": "[1]", "value": "1.7-2.0 fold"}, {"measurement": "other beige lineage markers (Pgc1α, Cedia, Dio2, Elovl3)", "setting": "[1]", "value": "did not raise"}, {"measurement": "reduced fat mass", "setting": "[2]; 55 grams×21%, end of study", "value": 11.6, "unit": "grams"}, {"measurement": "adiposity (fat mass percent)", "setting": "[2]; BIS, end of study, 1.5 months after the start of gavage, ~47% before gavage", "value": "~26", "unit": "%"}, {"measurement": "treadmill performance (time until exhaustion)", "setting": "[2]; after treatment", "value": "improved"}, {"measurement": "food intake", "setting": "[2]; before and after gavage, vs control group", "value": "comparable"}, {"measurement": "body weight lost", "setting": "[2]; end of study, 1.5 months after the start of gavage, HFD refeeding", "value": "~15.5", "unit": "%"}, {"measurement": "body weight loss", "setting": "[2]; end of the study", "value": "~9", "unit": "grams"}, {"measurement": "lean mass", "setting": "[2]; inferred from fat mass vs body weight loss", "value": "increase"}, {"measurement": "HbA1c level", "setting": "[3]; 100 mg/kg/day oral for 14 days, 6.5% before gavage", "value": "~5", "unit": "%"}, {"measurement": "random non-fasting blood glucose level", "setting": "[3]; 100 mg/kg/day oral for 14 days, ~250 mg/dL before gavage", "value": 130, "unit": "mg/dL"}, {"measurement": "glucose tolerance (IPGTT)", "setting": "[3]; [7]", "value": "drastically improved"}, {"measurement": "insulin sensitivity (IPITT)", "setting": "[3]; [7]", "value": "drastically improved"}, {"measurement": "HOMA-IR index", "setting": "[3]; oral administration, averaged index 95 upon HFD feeding", "value": "~55", "unit": "%"}, {"measurement": "MYC expression", "setting": "[4]", "value": "suppress"}, {"measurement": "rapid cell proliferation", "setting": "[4]", "value": "suppress"}, {"measurement": "antitumor activity", "setting": "[5]", "value": "antitumor activity"}, {"measurement": "bioavailability", "setting": "[6]", "value": "good and high"}]}]}
